According to PubChem BioAssay AID2060886 (Molecular Pharmacology Branch, DTP, NCI, 2025):

Tested on: 653999-131-R-J2-PDC complex spheroids, growth inhibition
Assay: Anticancer human tumor 653999-131-R-J2-PDC patient-derived lung adenocarcinoma cell line growth inhibition [RAS]
Conditions: for IC50: curve of first compound; for viability, T/C: stronger effect = lower value
Method in brief: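 Tumour cells grown as complex spheroids with HUVEC endothelial cells and mesenchymal stem cells, treated with RAS pathway inhibitor combinations. Each agent spans half-log steps from near clinical Cmax, or 10 microM where Cmax is unknown.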

[1] = second compound 0.000949 µM, first compound 0.0316 µM
[2] = second compound 0.000949 µM, first compound 0.1 µM
[3] = second compound 0.000949 µM, first compound 0.316 µM
[4] = second compound 0.000949 µM, first compound 1 µM
[5] = second compound 0.000949 µM, first compound 3.16 µM
[6] = second compound 0.000949 µM, first compound 10 µM
[7] = second compound 0.003 µM, first compound 0.0316 µM
[8] = second compound 0.003 µM, first compound 0.1 µM
[9] = second compound 0.003 µM, first compound 0.316 µM
[10] = second compound 0.003 µM, first compound 1 µM
[11] = second compound 0.003 µM, first compound 3.16 µM
[12] = second compound 0.003 µM, first compound 10 µM
[13] = second compound 0.00949 µM, first compound 0.0316 µM
[14] = second compound 0.00949 µM, first compound 0.1 µM
[15] = second compound 0.00949 µM, first compound 0.316 µM
[16] = second compound 0.00949 µM, first compound 1 µM
[17] = second compound 0.00949 µM, first compound 3.16 µM
[18] = second compound 0.00949 µM, first compound 10 µM
[19] = second compound 0.03 µM, first compound 0.0316 µM
[20] = second compound 0.03 µM, first compound 0.1 µM
[21] = second compound 0.03 µM, first compound 0.316 µM
[22] = second compound 0.03 µM, first compound 1 µM
[23] = second compound 0.03 µM, first compound 3.16 µM
[24] = second compound 0.03 µM, first compound 10 µM
[25] = second compound 0.0949 µM, first compound 0.0316 µM
[26] = second compound 0.0949 µM, first compound 0.1 µM
[27] = second compound 0.0949 µM, first compound 0.316 µM
[28] = second compound 0.0949 µM, first compound 1 µM
[29] = second compound 0.0949 µM, first compound 3.16 µM
[30] = second compound 0.0949 µM, first compound 10 µM
[31] = second compound 0.3 µM, first compound 0.0316 µM
[32] = second compound 0.3 µM, first compound 0.1 µM
[33] = second compound 0.3 µM, first compound 0.316 µM
[34] = second compound 0.3 µM, first compound 1 µM
[35] = second compound 0.3 µM, first compound 3.16 µM
[36] = second compound 0.3 µM, first compound 10 µM
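Note: spheroids exposed to the agents for seven days before the readout.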

In the case of NC1c2ccccc2OC12CCN(c1cnc3c(N4CCCc5ncccc54)n[nH]c3n1)CC2 (stereo unspecified) + CCn1c(-c2cc(N3CCN(C)CC3)cnc2C(C)OC)c2c3cc(ccc31)-c1csc(n1)CC(NC(=O)C1CC1C)C(=O)N1CCCC(N1)C(=O)OCC(C)(C)C2, the IC50 (second compound 0.000949 µM) is reported as greater than 10000 nM, the IC50 (second compound 0.003 µM) is reported as 65.7 nM and the IC50 (second compound 0.00949 µM) is reported as less than 31.6 nM. For the same molecule, the IC50 (second compound 0.03 µM) was less than 31.6 nM, the IC50 (second compound 0.0949 µM) was less than 31.6 nM and the IC50 (second compound 0.3 µM) was less than 31.6 nM. For the same molecule, the viability, T/C [1] was 67%, the viability, T/C [2] was 60.7% and the viability, T/C [3] was 55.2%. It also gave a viability, T/C [4] of 59.3%, a viability, T/C [5] of 65.6% and a viability, T/C [6] of 63.4%. For the same molecule, the viability, T/C [7] was 60.7%, the viability, T/C [8] was 40.6% and the viability, T/C [9] was 40.3%. It also gave a viability, T/C [10] of 49.5%, a viability, T/C [11] of 41.3% and a viability, T/C [12] of 42.1%. It also gave a viability, T/C [13] of 40.9%, a viability, T/C [14] of 34% and a viability, T/C [15] of 28.5%. For the same molecule, the viability, T/C [16] was 33.9%, the viability, T/C [17] was 24.7% and the viability, T/C [18] was 24%. It also gave a viability, T/C [19] of 24.1%, a viability, T/C [20] of 20.3% and a viability, T/C [21] of 12.9%. It also gave a viability, T/C [22] of 9.46%, a viability, T/C [23] of 12.2% and a viability, T/C [24] of 11.1%. For the same molecule, the viability, T/C [25] was 17.6%, the viability, T/C [26] was 17% and the viability, T/C [27] was 12.7%. It also gave a viability, T/C [28] of 7.56%, a viability, T/C [29] of 5.76% and a viability, T/C [30] of 6.14%. The viability, T/C [31] was 16.5%, the viability, T/C [32] was 10.2% and the viability, T/C [33] was 7.36%. The viability, T/C [34] was 6.93%, the viability, T/C [35] was 7.17% and the viability, T/C [36] was 4.26%.
CCN1CCN(Cc2ccc(Nc3ncc(F)c(-c4cc(F)c5nc(C)n(C(C)C)c5c4)n3)nc2)CC1 + CCn1c(-c2cc(N3CCN(C)CC3)cnc2C(C)OC)c2c3cc(ccc31)-c1csc(n1)CC(NC(=O)C1CC1C)C(=O)N1CCCC(N1)C(=O)OCC(C)(C)C2 showed an IC50 (second compound 0.000949 µM) greater than 1000 nM, an IC50 (second compound 0.003 µM) of 94.8 nM and an IC50 (second compound 0.00949 µM) of 5.9 nM. The IC50 (second compound 0.03 µM) was less than 3.16 nM, the IC50 (second compound 0.0949 µM) was less than 3.16 nM and the IC50 (second compound 0.3 µM) was less than 3.16 nM. It also gave a viability, T/C (second compound 0.000949 µM, first compound 0.00316 µM) of 81.5%, a viability, T/C (second compound 0.000949 µM, first compound 0.01 µM) of 62.4% and a viability, T/C [1] of 66.9%. For the same molecule, the viability, T/C [2] was 58.1%, the viability, T/C [3] was 62.6% and the viability, T/C [4] was 58%. The viability, T/C (second compound 0.003 µM, first compound 0.00316 µM) was 63.4%, the viability, T/C (second compound 0.003 µM, first compound 0.01 µM) was 66.9% and the viability, T/C [7] was 62.3%. It also gave a viability, T/C [8] of 49.5%, a viability, T/C [9] of 46.2% and a viability, T/C [10] of 47.5%. It also gave a viability, T/C (second compound 0.00949 µM, first compound 0.00316 µM) of 56.6%, a viability, T/C (second compound 0.00949 µM, first compound 0.01 µM) of 45.9% and a viability, T/C [13] of 37%. The viability, T/C [14] was 30.4%, the viability, T/C [15] was 34% and the viability, T/C [16] was 33.1%. The viability, T/C (second compound 0.03 µM, first compound 0.00316 µM) was 24.2%, the viability, T/C (second compound 0.03 µM, first compound 0.01 µM) was 30.9% and the viability, T/C [19] was 30.9%. It also gave a viability, T/C [20] of 24.4%, a viability, T/C [21] of 26.3% and a viability, T/C [22] of 29.4%. It also gave a viability, T/C (second compound 0.0949 µM, first compound 0.00316 µM) of 30.6%, a viability, T/C (second compound 0.0949 µM, first compound 0.01 µM) of 26.6% and a viability, T/C [25] of 15.7%. It also gave a viability, T/C [26] of 22.2%, a viability, T/C [27] of 24.3% and a viability, T/C [28] of 25.4%. For the same molecule, the viability, T/C (second compound 0.3 µM, first compound 0.00316 µM) was 23.3%, the viability, T/C (second compound 0.3 µM, first compound 0.01 µM) was 24.7% and the viability, T/C [31] was 17.5%. The viability, T/C [32] was 17.7%, the viability, T/C [33] was 18.1% and the viability, T/C [34] was 29.2%.
CC(C)NCC(C(=O)N1CCN(c2ncnc3c2C(C)CC3O)CC1)c1ccc(Cl)cc1 (stereo unspecified) + CCn1c(-c2cc(N3CCN(C)CC3)cnc2C(C)OC)c2c3cc(ccc31)-c1csc(n1)CC(NC(=O)C1CC1C)C(=O)N1CCCC(N1)C(=O)OCC(C)(C)C2 gave an IC50 (second compound 0.000949 µM) of 649 nM, an IC50 (second compound 0.003 µM) of 190 nM and an IC50 (second compound 0.00949 µM) of less than 31.6 nM. It also gave an IC50 (second compound 0.03 µM) of less than 31.6 nM, an IC50 (second compound 0.0949 µM) of less than 31.6 nM and an IC50 (second compound 0.3 µM) of less than 31.6 nM. It also gave a viability, T/C [1] of 79.2%, a viability, T/C [2] of 89.7% and a viability, T/C [3] of 61.1%. It also gave a viability, T/C [4] of 43.9%, a viability, T/C [5] of 26.6% and a viability, T/C [6] of 26.9%. The viability, T/C [7] was 72.5%, the viability, T/C [8] was 52.9% and the viability, T/C [9] was 50.8%. The viability, T/C [10] was 29.6%, the viability, T/C [11] was 26.6% and the viability, T/C [12] was 20.4%. It also gave a viability, T/C [13] of 49.7%, a viability, T/C [14] of 39.6% and a viability, T/C [15] of 38.4%. For the same molecule, the viability, T/C [16] was 28.8%, the viability, T/C [17] was 16.4% and the viability, T/C [18] was 14.4%. It also gave a viability, T/C [19] of 34.2%, a viability, T/C [20] of 36.5% and a viability, T/C [21] of 23.9%. It also gave a viability, T/C [22] of 18.6%, a viability, T/C [23] of 10.3% and a viability, T/C [24] of 9.69%. The viability, T/C [25] was 27.3%, the viability, T/C [26] was 23.8% and the viability, T/C [27] was 18.5%. It also gave a viability, T/C [28] of 13.7%, a viability, T/C [29] of 9.85% and a viability, T/C [30] of 5.97%. For the same molecule, the viability, T/C [31] was 24%, the viability, T/C [32] was 20.4% and the viability, T/C [33] was 20.9%. The viability, T/C [34] was 14.7%, the viability, T/C [35] was 8.46% and the viability, T/C [36] was 5.88%.
